Results published in patent US20050065166A1, “Substituted pyrimidines” (priority 2001, published 2005).

Row | SMILES | melting point [°C]
1 | Cc1nc([S+]([O-])Cc2ccc(Cl)cc2)nc2c1CCCC2 (stereo not drawn) | 127
2 | Cc1nc(SCc2ccc(Cl)cc2)nc2c1CCCC2 | 48
3 | Cc1nc(S(=O)(=O)Cc2ccc(Cl)cc2)nc2c1CCCC2 | 151
